Experimental data: US10219516B2, “Molecules having pesticidal utility, and intermediates, compositions, and processes, related thereto” (priority 2015, dated 2019)
Where two headings read alike, the source gives them in different places.

Experiments:
Assay type in all cases: in vivo
[1] = tested on: Beet Armyworm (Spodoptera exigua, LAPHEG); experiment: Bioassay on Beet Armyworm (BAW), 128-well diet tray assay
In short: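 Second-instar larvae, one to five per well, placed on artificial diet surface-treated with 50 μg/cm^2 compound applied in 90:10 acetone-water and dried. Held 5–7 days at 25° C., 14:10 light-dark. Percent mortality recorded per well and averaged over eight wells.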

[2] = tested on: Cabbage Looper (Trichoplusia ni, TRIPNI); experiment: Bioassay on Cabbage Looper (CL), 128-well diet tray assay; settings: Trichoplusia ni
In short: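 Diet-incorporation-free surface assay: 50 μg/cm^2 compound in acetone-water (90:10), dried on diet; 1–5 2nd-instar larvae/well; 8 wells; vented cover; 25° C., 14:10 L:D, 5–7 d; % mortality averaged over wells.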

[3] = tested on: Yellow Fever Mosquito (Aedes aegypti, AEDSAE); experiment: Bioassay on Yellow Fever Mosquito (YFM), 96-well plate larval assay; settings: for YFM (Biological Results, rating): Species YFM (Yellow Fever Mosquito); for YFM rating: Yellow Fever Mosquito, 96-well plate larval assay
In short: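 Each well was scored for mortality after 3 days at room temperature under a non-evaporative lid. Test molecules came from DMSO masters (4000 ppm stock) diluted with water/acetone 90:10 and dispensed into six replicate plates, which were then infested with roughly 1-day-old larvae in liver-powder water.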

[4] = Species BAW (Beet Armyworm), read-out: BAW (Biological Results, rating)
[5] = Species CL (Cabbage Looper), read-out: CL (Biological Results, rating)
[6] = Beet Armyworm, 128-well diet tray assay, read-out: BAW rating
[7] = Cabbage Looper, 128-well diet tray assay, read-out: CL rating

Structure (SMILES)	pest or weed control at 50 µg/cm2 [1, 4]	pest or weed control at 50 µg/cm2 [2, 5]	YFM (Biological Results, rating) [3]	pest or weed control at 50 µg/cm2 [1, 6]	pest or weed control at 50 µg/cm2 [2, 7]	YFM rating [3]
Nc1cncc(NC(=O)c2cc(NC(=O)[C@H]3[C@H](c4cc(Cl)cc(Cl)c4)C3(Cl)Cl)ccc2Cl)c1 [F362, N-(5-aminopyridin-3-yl)-2-chloro-5-((1R,3R)-2,2-dichloro-3-(3,5-dichlorophenyl)cyclopropane-1-carboxamido)benzamide]	50 to 100%	50 to 100%	A (80-100)	–	–	–
Nc1cncc(NC(=O)c2cc(NC(=O)[C@H]3[C@H](c4ccc(Cl)c(Cl)c4)C3(Cl)Cl)ccc2Cl)c1 [F363, N-(5-Aminopyridin-3-yl)-2-chloro-5-((1R,3R)-2,2-dichloro-3-(3,4-dichlorophenyl)cyclopropane-1-carboxamido)benzamide]	50 to 100%	50 to 100%	A (80-100)	–	–	–
O=C(Nc1ccnc(Cl)c1)c1cc(NC(=O)[C@H]2[C@H](c3cc(Cl)cc(Cl)c3)C2(Cl)Cl)ccc1Cl [F368, 2-Chloro-N-(2-chloropyridin-4-yl)-5-((1R,3R)-2,2-dichloro-3-(3,5-dichlorophenyl)cyclopropane-1-carboxamido)benzamide]	50 to 100%	50 to 100%	A (80-100)	–	–	–
O=C(Nc1ccnc(Cl)c1)c1cc(NC(=O)[C@H]2[C@H](c3ccc(Cl)c(Cl)c3)C2(Cl)Cl)ccc1Cl [F369, 2-Chloro-N-(2-chloropyridin-4-yl)-5-((1R,3R)-2,2-dichloro-3-(3,4-dichlorophenyl)cyclopropane-1-carboxamido)benzamide]	50 to 100%	50 to 100%	A (80-100)	–	–	–
Nc1c(F)cnc(NC(=O)c2cc(NC(=O)[C@H]3[C@H](c4cc(Cl)cc(Cl)c4)C3(Cl)Cl)ccc2Cl)c1F [F370, N-(4-Amino-3,5-difluoropyridin-2-yl)-2-chloro-5-((1R,3R)-2,2-dichloro-3-(3,5-dichlorophenyl)cyclopropane-1-carboxamido)benzamide]	50 to 100%	50 to 100%	A (80-100)	–	–	–
Nc1c(F)cnc(NC(=O)c2cc(NC(=O)[C@H]3[C@H](c4ccc(Cl)c(Cl)c4)C3(Cl)Cl)ccc2Cl)c1F [F371, N-(4-Amino-3,5-difluoropyridin-2-yl)-2-chloro-5-((1R,3R)-2,2-dichloro-3-(3,4-dichlorophenyl)cyclopropane-1-carboxamido)benzamide]	50 to 100%	50 to 100%	A (80-100)	–	–	–
Nc1c(F)cnc(NC(=O)c2cc(NC(=O)[C@H]3[C@H](c4cc(Cl)c(Cl)c(Cl)c4)C3(Cl)Cl)ccc2Cl)c1F [F372, N-(4-Amino-3,5-difluoropyridin-2-yl)-2-chloro-5-((1R,3R)-2,2-dichloro-3-(3,4,5-trichlorophenyl)cyclopropane-1-carboxamido)benzamide]	50 to 100%	50 to 100%	A (80-100)	–	–	–
Nc1ccc(F)cc1NC(=O)c1cc(NC(=O)[C@H]2[C@H](c3cc(Cl)cc(Cl)c3)C2(Cl)Cl)ccc1Cl [F373, N-(2-Amino-5-fluorophenyl)-2-chloro-5-((1R,3R)-2,2-dichloro-3-(3,5-dichlorophenyl)cyclopropane-1-carboxamido)benzamide]	–	–	–	50 to 100%	50 to 100%	A (80-100)
Nc1c(F)cc(F)cc1NC(=O)c1cc(NC(=O)[C@H]2[C@H](c3ccc(Cl)c(Cl)c3)C2(Cl)Cl)ccc1Cl [F377, N-(2-Amino-3,5-difluorophenyl)-2-chloro-5-((1R,3R)-2,2-dichloro-3-(3,4-dichlorophenyl)cyclopropane-1-carboxamido)benzamide]	–	–	–	50 to 100%	50 to 100%	A (80-100)
Nc1c(F)cc(NC(=O)c2cc(NC(=O)[C@H]3[C@H](c4cc(Cl)cc(Cl)c4)C3(Cl)Cl)ccc2Cl)cc1F [F378, N-(4-Amino-3,5-difluorophenyl)-2-chloro-5-((1R,3R)-2,2-dichloro-3-(3,5-dichlorophenyl)cyclopropane-1-carboxamido)benzamide]	–	–	–	50 to 100%	50 to 100%	B (More than 0-Less than 80)
Nc1c(F)cc(NC(=O)c2cc(NC(=O)[C@H]3[C@H](c4ccc(Cl)c(Cl)c4)C3(Cl)Cl)ccc2Cl)cc1F [F379, N-(4-Amino-3,5-difluorophenyl)-2-chloro-5-((1R,3R)-2,2-dichloro-3-(3,4-dichlorophenyl)cyclopropane-1-carboxamido)benzamide]	–	–	–	50 to 100%	50 to 100%	A (80-100)
Nc1c(F)cc(NC(=O)c2cc(NC(=O)[C@H]3[C@H](c4cc(Cl)c(Cl)c(Cl)c4)C3(Cl)Cl)ccc2Cl)cc1F [F380, N-(4-Amino-3,5-difluorophenyl)-2-chloro-5-((1R,3R)-2,2-dichloro-3-(3,4,5-trichlorophenyl)cyclopropane-1-carboxamido)benzamide]	–	–	–	50 to 100%	50 to 100%	A (80-100)
Nc1c(F)cc(NC(=O)c2cc(NC(=O)[C@H]3[C@H](c4ccc(F)c(Cl)c4)C3(Cl)Cl)ccc2Cl)cc1F [F381, N-(4-Amino-3,5-difluorophenyl)-2-chloro-5-((1R,3R)-2,2-dichloro-3-(3-chloro-4-fluorophenyl)cyclopropane-1-carboxamido)benzamide]	–	–	–	50 to 100%	50 to 100%	A (80-100)
Nc1cc(NC(=O)c2cc(NC(=O)[C@H]3[C@H](c4cc(Cl)c(Cl)c(Cl)c4)C3(Cl)Cl)ccc2Cl)c(F)cc1F [F402, N-(5-Amino-2,4-difluorophenyl)-2-chloro-5-((1R,3R)-2,2-dichloro-3-(3,4,5-trichlorophenyl)cyclopropane-1-carboxamido)benzamide]	–	–	–	50 to 100%	50 to 100%	A (80-100)
Nc1cc(NC(=O)c2cc(NC(=O)[C@H]3[C@H](c4ccc(F)c(Cl)c4)C3(Cl)Cl)ccc2Cl)c(F)cc1F [F403, N-(5-Amino-2,4-difluorophenyl)-2-chloro-5-((1R,3R)-2,2-dichloro-3-(3-chloro-4-fluorophenyl)cyclopropane-1-carboxamido)benzamide]	–	–	–	50 to 100%	50 to 100%	A (80-100)
Nc1c(F)cc(F)cc1NC(=O)c1cc(NC(=O)[C@H]2[C@H](c3cc(Cl)c(Cl)c(Cl)c3)C2(Cl)Cl)ccc1Cl [F404, N-(2-Amino-3,5-difluorophenyl)-2-chloro-5-((1R,3R)-2,2-dichloro-3-(3,4,5-trichlorophenyl)cyclopropane-1-carboxamido)benzamide]	–	–	–	50 to 100%	50 to 100%	A (80-100)
Nc1ccc(F)cc1NC(=O)c1cc(NC(=O)[C@H]2[C@H](c3cc(Cl)c(Cl)c(Cl)c3)C2(Cl)Cl)ccc1Cl [F405, N-(2-Amino-5-fluorophenyl)-2-chloro-5-((1R,3R)-2,2-dichloro-3-(3,4,5-trichlorophenyl)cyclopropane-1-carboxamido)benzamide]	–	–	–	50 to 100%	50 to 100%	A (80-100)
